# Results from patent publication US8557796B2, “Substituted 1-oxa-2,8-diaza-spiro [4,5] dec-2-ene derivatives and related treatment methods” (Gruenenthal GmbH, priority 2001, dated 2013).
# Molecular target: T1, NA transporter (Rattus norvegicus, UniProt Q9WTR4)
# T1 construct: synaptosomes from rat brain regions were freshly isolated; from tissue; host or cells: P2 synaptosome fraction from hypothalamus of male rat brain
# Assay: Noradrenalin uptake inhibition (NA-uptake) in synaptosomes
# Assay type: biochemical
# Details: rat hypothalamus synaptosomes
# Text: Tests on Noradrenalin Uptake Inhibition (NA-Uptake Inhibition)
# In order to be able to carry out these in vitro studies, synaptosomes from rat brain regions were freshly isolated.
# T1 sequence (Q9WTR4 1-597): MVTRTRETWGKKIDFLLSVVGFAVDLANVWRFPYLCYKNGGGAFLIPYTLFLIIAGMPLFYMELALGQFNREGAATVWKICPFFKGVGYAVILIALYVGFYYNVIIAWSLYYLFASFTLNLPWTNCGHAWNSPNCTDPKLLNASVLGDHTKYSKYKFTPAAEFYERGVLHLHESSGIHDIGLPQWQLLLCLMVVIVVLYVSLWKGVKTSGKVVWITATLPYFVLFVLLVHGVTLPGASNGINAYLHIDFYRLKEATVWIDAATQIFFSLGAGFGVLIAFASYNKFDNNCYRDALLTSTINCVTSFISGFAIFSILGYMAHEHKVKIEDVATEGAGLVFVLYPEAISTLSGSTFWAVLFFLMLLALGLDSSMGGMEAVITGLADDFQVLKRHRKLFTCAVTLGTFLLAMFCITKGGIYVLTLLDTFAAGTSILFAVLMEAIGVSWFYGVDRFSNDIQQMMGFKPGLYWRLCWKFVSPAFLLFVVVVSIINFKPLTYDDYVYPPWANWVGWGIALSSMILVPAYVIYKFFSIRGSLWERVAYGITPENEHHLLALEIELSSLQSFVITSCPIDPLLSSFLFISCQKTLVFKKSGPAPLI
Compound,inhibition at 10 µM [%],"NA-uptake, 10 μM, % inhibition [%]"
"O=C(NCc1ccccc1)C1=NOC2(CCN(C(=O)c3cccnc3Oc3ccccc3)CC2)C1 [Example 203, 8-(2-phenoxy-pyridine-3-carbonyl)-1-oxa-2,8-diaza-spiro[4,5]dec-2-ene-3-carboxylic acid benzylamide]",58,–
"Cc1oc(C(C)(C)C)cc1C(=O)N1CCC2(CC1)CC(C(=O)NC1CCCC1)=NO2 [Example 126, 8-(5-tert-butyl-2-methyl-furan-3-carbonyl)-1-oxa-2,8-diaza-spiro[4,5]dec-2-ene-3-carboxylic acid cyclopentylamide]",67,–
"CCOC(=O)N1CCC(NC(=O)C2=NOC3(CCN(S(=O)(=O)c4cccc(C(F)(F)F)c4)CC3)C2)CC1 [Example 122, 4-{[8-(3-trifluoromethyl-benzenesulphonyl)-1-oxa-2,8-diaza-spiro[4,5]dec-2-ene-3 carbonyl]-amino}-piperidine-1-carboxylic acid ethyl ester]",41,–
"CN(C)S(=O)(=O)N1CCC2(CC1)CC(C(=O)NCCc1ccccc1)=NO2 [Example 7, 8-dimethylsulphamoyl-1-oxa-2,8-diaza-spiro[4,5]dec-2-ene-3-carboxylic acid phenethyl-amide]",50,–
"Cc1onc(-c2c(Cl)cccc2Cl)c1C(=O)N1CCC2(CC1)CC(C(=O)NCc1cccs1)=NO2 [Example 197, 8-[3-(2,6-dichloro-phenyl)-5-methyl-isoxazole-4-carbonyl]-1-oxa-2,8-diaza-spiro[4,5]dec-2-ene-3-carboxylic acid (thiophen-2-ylmethyl)-amide]",41,–
"O=C(NCC1CC1)C1=NOC2(CCN(C(=O)c3ccc4ccccc4c3)CC2)C1 [Example 204, 8-(naphthalene-2-carbonyl)-1-oxa-2,8-diaza-spiro[4,5]dec-2-ene-3-carboxylic acid cyclopropylmethyl-amide]",48,–
"CC(C)CC(NC(=O)C1=NOC2(CCN(S(=O)(=O)c3cccc(C(F)(F)F)c3)CC2)C1)C(=O)OC(C)(C)C (centres unmarked) [Example 214, 4-methyl-2-{[8-(3-trifluoromethyl-benzenesulphonyl)-1-oxa-2,8-diaza-spiro[4,5]dec-2-ene-3-carbonyl]-amino}-pentanoic acid tert-butyl ester]",45,–
"O=C(Nc1ccccc1)C1=NOC2(CCN(C(=O)c3ccc(Br)cc3)CC2)C1 [Example 181, 8-(4-bromo-benzoyl)-1-oxa-2,8-diaza-spiro[4,5]dec-2-ene-3-acarboxylic cid phenylamide]",–,51
"Cc1ccc(F)c(C(=O)N2CCC3(CC2)CC(C(=O)NCc2cccs2)=NO3)c1F [Example 170, 8-(2,6-difluoro-3-methyl-benzoyl)-1-oxa-2,8-diaza-spiro[4,5]dec-2-ene-3-carboxylic acid (thiophen-2-ylmethyl)-amide]",43,–
"CC(C)CNC(=O)C1=NOC2(CCN(C(=O)c3ccc(F)cc3)CC2)C1 [Example 137, 8-(4-fluoro-benzoyl)-1-oxa-2,8-diaza-spiro[4,5]dec-2-ene-3-carboxylic acid isobutyl-amide]",49,–
"COc1ccc(S(=O)(=O)N2CCC3(CC2)CC(C(=O)NC2CC2c2ccccc2)=NO3)cc1 (centres unmarked) [Example 182, 8-(4-methoxy-benzenesulphonyl)-1-oxa-2,8-diaza-spiro[4,5]dec-2-ene-3-carboxylic acid (2-phenyl-cyclopropyl)-amide]",73,–
"O=C(NCCc1cccc(F)c1)C1=NOC2(CCN(S(=O)(=O)Cc3ccccc3)CC2)C1 [Example 78, 8-phenylmethanesulphonyl-1-oxa-2,8-diaza-spiro[4,5]dec-2-ene-3-carboxylic acid [2-(3-fluorophenyl)-ethyl]-amide]",42,–
"O=C(NCc1cccs1)C1=NOC2(CCN(C(=O)c3ccc(SC(F)(F)F)cc3)CC2)C1 [Example 135, 8-(4-trifluoromethylsulphanyl-benzoyl)-1-oxa-2,8-diaza-spiro[4,5]dec-2-ene-3-carboxylic acid (thiophen-2-ylmethyl)-amide]",56,–
O=C(NCc1cccs1)C1=NOC2(CCN(C(=O)C=Cc3ccccc3)CC2)C1 [Example 106],–,47
O=C(NC1CCCC1)C1=NOC2(CCN(C(=O)c3ccccc3COC(=O)c3ccccc3)CC2)C1 [Example 188],–,49
"O=C(NCC1CC1)C1=NOC2(CCN(C(=O)c3ccc(SC(F)(F)F)cc3)CC2)C1 [Example 108, 8-(4-trifluoromethylsulphanyl-benzoyl)-1-oxa-2,8-diaza-spiro[4,5]dec-2-ene-3-carboxylic acid cyclopropylmethyl-amide]",42,–
"CCSCCNC(=O)C1=NOC2(CCN(S(=O)(=O)CC34CCC(CC3=O)C4(C)C)CC2)C1 (centres unmarked) [Example 111, 8-(7,7-dimethyl-2-oxo-bicyclo[2.2.1]hept-1-ylmethane-sulphonyl)-1-oxa-2,8-diaza-spiro[4,5]dec-2-ene-3-carboxylic acid (2-ethylsulphanyl-ethyl)-amide]",40,–
"O=C(NCc1ccccc1F)C1=NOC2(CCN(S(=O)(=O)c3ccc(F)cc3)CC2)C1 [Example 207, 8-(4-fluoro-benzenesulphonyl)-1-oxa-2,8-diaza-spiro[4,5]dec-2-ene-3-carboxylic acid 2 fluorobenzylamide]",50,–

Compound,inhibition at 10 µM [%],"NA-uptake, 10 μM, % inhibition [%]"
"COC(=O)c1ccccc1S(=O)(=O)N1CCC2(CC1)CC(C(=O)NCC(C)C)=NO2 [Example 138, 2-(3-isobutylcarbamoyl-1-oxa-2,8-diaza-spiro[4,5]dec-2-ene-8-sulphonyl)-benzoic acid methyl ester]",49,–
"CC(Cc1ccc(Cl)cc1)NC(=O)C1=NOC2(CCN(S(=O)(=O)c3ccc(Cl)s3)CC2)C1 (centres unmarked) [Example 168, 8-(5-chloro-thiophene-2-sulphonyl)-1-oxa-2,8-diaza-spiro[4,5]dec-2-ene-3-carboxylic acid [2-(4-chloro-phenyl)-1-methyl-ethyl]-amide]",79,–
"CN(C)S(=O)(=O)N1CCC2(CC1)CC(C(=O)N1CCN(Cc3ccc(C(C)(C)C)cc3)CC1)=NO2 [Example 189, 3-[4-(4-tert-butyl-benzyl)-piperazine-1-carbonyl]-1-oxa-2,8-diaza-spiro[4,5]dec-2-ene-8-sulphonic acid dimethylamide]",45,–
O=C(NCCc1cccc(C(F)(F)F)c1)C1=NOC2(CCN(S(=O)(=O)c3ccc(F)cc3)CC2)C1 [Example 196],–,40
"O=C(NC1CCCC1OCc1ccccc1)C1=NOC2(CCN(S(=O)(=O)Cc3ccccc3)CC2)C1 (centres unmarked) [Example 20, 8-phenylmethanesulphonyl-1-oxa-2,8-diaza-spiro[4,5]dec-2-ene-3-carboxylic acid (2-benzyloxy-cyclopentyl)-amide]",70,–
"CC(NC(=O)C1=NOC2(CCN(S(=O)(=O)c3cccs3)CC2)C1)c1ccccc1 (centres unmarked) [Example 8, 8-(thiophene-2-sulphonyl)-1-oxa-2,8-diaza-spiro[4,5]dec-2-ene-3-carboxylic acid (1-phenyl-ethyl)-amide]",48,–
"O=C(NC1CCCC1OCc1ccccc1)C1=NOC2(CCN(S(=O)(=O)c3cccs3)CC2)C1 (centres unmarked) [Example 47, 8-(thiophene-2-sulphonyl)-1-oxa-2,8-diaza-spiro[4,5]dec-2-ene-3-carboxylic acid (2-benzyloxy-cyclopentyl)-amide]",92,–
O=C(OCc1ccccc1)N1CCN(C(=O)C2=NOC3(CCN(S(=O)(=O)c4ccc(F)cc4)CC3)C2)CC1 [Example 143],–,47
"O=C(NCC1CC1)C1=NOC2(CCN(C(=O)c3ccc(OC(F)(F)F)cc3)CC2)C1 [Example 117, 8-(4-trifluoromethoxy-benzoyl)-1-oxa-2,8-diaza-spiro[4,5]dec-2-ene-3-carboxylic acid cyclopropylmethyl-amide]",46,–
"O=C(NCc1cccs1)C1=NOC2(CCN(C(=O)c3cccc(Cl)c3F)CC2)C1 [Example 146, 8-(3-chloro-2-fluorobenzoyl)-1-oxa-2,8-diaza-spiro[4,5]dec-2-ene-3-carboxylic acid (thiophen-2-ylmethyl)-amide]",61,–
"CCSCCNC(=O)C1=NOC2(CCN(C(=O)c3cc(C(C)(C)C)nn3C)CC2)C1 [Example 185, 8-(5-tert-butyl-2-methyl-2H-pyrazole-3-carbonyl)-1-oxa-2,8-diaza-spiro[4,5]dec-2-ene-3-carboxylic acid (2-ethylsulphanyl-ethyl)-amide]",45,–
"CN(C)S(=O)(=O)N1CCC2(CC1)CC(C(=O)NC(Cc1ccccc1)C(=O)OC(C)(C)C)=NO2 (centres unmarked) [Example 139, 2-[(8-dimethylsulphamoyl-1-oxa-2,8-diaza-spiro[4,5]dec-2-ene-3-carbonyl)-amino]-3-phenyl-propionic acid tert-butyl ester]",51,–
"O=C(NCc1ccccc1)C1=NOC2(CCN(C(=O)c3ccncc3)CC2)C1 [Example 102, 8-(pyridine-4-carbonyl)-1-oxa-2,8-diaza-spiro[4,5]dec-2-ene-3-carboxylic acid benzylamide]",48,–
"O=C(NCc1ccccc1)C1=NOC2(CCN(C(=O)c3cccc(SC(F)F)c3)CC2)C1 [Example 180, 8-(3-difluoromethylsulphanyl-benzoyl)-1-oxa-2,8-diaza-spiro[4,5]dec-2-ene-3-carboxylic acid benzylamide]",61,–
"O=C(NCCc1ccccc1)C1=NOC2(CCN(S(=O)(=O)Cc3ccccc3)CC2)C1 [Example 12, 8-phenylmethanesulphonyl-1-oxa-2,8-diaza-spiro[4,5]dec-2-ene-3-carboxylic acid phenethyl-amide]",54,–
"O=C(NCc1cccs1)C1=NOC2(CCN(C(=O)c3ccc(F)c(Cl)c3)CC2)C1 [Example 184, 8-(3-chloro-4-fluorobenzoyl)-1-oxa-2,8-diaza-spiro[4,5]dec-2-ene-3-carboxylic acid (thiophen-2-ylmethyl)-amide]",62,–
O=C(NC1CCCC1OCc1ccccc1)C1=NOC2(CCN(S(=O)(=O)c3ccc(F)cc3)CC2)C1 (centres unmarked) [Example 199],–,78
